Data from patent US20230212163A1, “2-(HET)ARYL-SUBSTITUTED CONDENSED HETEROCYCLIC DERIVATIVES AS PEST CONTROL AGENTS” (Bayer Aktiengesellschaft, priority 2020, published 2023).
Where two headings read alike, the source gives them in different places.

What was measured:
[1] = logP by HPLC on reversed-phase column (C18); assay type: physicochemical; conditions: LC-UV
Experimental: The logP values were determined according to EEC Directive 79/831 Annex V.A8 by HPLC (high-performance liquid chromatography) on a reversed-phase column (C18) using the following methods: ^[a]The logP value is determined by LC-UV measurement in the acidic range using 0.9 ml/l formic acid in water and 1.0 ml/l formic acid in acetonitrile as mobile phases (linear gradient from 10% acetonitrile to 95% acetonitrile). ^[b]The logP value is determined by LC-UV measurement in the neutral range using 0.001 molar ammonium acetate solution in water and acetonitrile as mobile phases (linear gradient from 10% acetonitrile to 95% acetonitrile). Calibration was carried out using straight-chain alkan-2-ones (having 3 to 16 carbon atoms) with known logP values. The values between successive alkanones are determined by linear regression.

Phaedon cochleariae = Phaedon cochleariae spray test; assay type: in vivo; conditions: application rate 100 g/ha, after 7 days
Experimental: (§1) [table] To produce a suitable active compound formulation, 1 part by weight of active compound is dissolved using the stated parts by weight of solvent and made up with water containing an emulsifier concentration of 1000 ppm until the desired concentration is attained. To produce further test concentrations, the formulation is diluted with emulsifier-containing water. Discs of Chinese cabbage leaves (Brassica pekinensis) are sprayed with an active compound formulation of the desired concentration and, after drying, populated with larvae of the mustard beetle (Phaedon cochleariae). After 7 days, the efficacy in % is determined. 100% means that all the beetle larvae have been killed; 0% means that no beetle larvae have been killed.

Myzus persicae = Myzus persicae oral test; assay type: in vivo; conditions: 120 h, application rate 4 ppm, after 5 days, read-out: efficacy
Experimental: [table] To produce a suitable active compound formulation, 1 part by weight of active compound is dissolved using the specified parts by weight of solvent and made up with water until the desired concentration is attained. 50 μl of the active compound formulation are transferred into microtitre plates and made up to a final volume of 200 μl with 150 μl of IPL41 insect medium (33%+15% sugar). Subsequently, the plates are sealed with parafilm, which a mixed population of green peach aphids (Myzus persicae) within a second microtitre plate is able to puncture and imbibe the solution through. After 5 days, the efficacy in % is determined. 100% means that all the aphids have been killed; 0% means that no aphids have been killed.

Spodoptera frugiperda = Spodoptera frugiperda spray test (maize leaf discs); assay type: in vivo; conditions: application rate 100 g/ha, after 7 days; for pest or weed control at 100 g/ha: Spodoptera frugiperda, foliar, 168 h
Experimental: as §1, with “water. Leaf discs” for “water. Discs”, “of maize (Zea mays)” for “of Chinese cabbage leaves (Brassica pekinensis)”, “with caterpillars” for “with larvae”, “the fall armyworm (Spodoptera frugiperda).” for “the mustard beetle (Phaedon cochleariae).”, “the caterpillars” for “the beetle larvae”, “no caterpillar has” for “no beetle larvae have”

Diabrotica balteata = Diabrotica balteata spray test; assay type: in vivo; conditions: after 7 days; for pest or weed control at 31.25 g/ha / pest or weed control at 125 g/ha / pest or weed control at 500 g/ha / pest or weed control at 100 g/ha / pest or weed control at 20 g/ha: Diabrotica balteata, 168 h; for pest or weed control at 31.25 g/ha: application rate 31.25 g/ha (=10 μg/cavity); for pest or weed control at 31.25 g/ha / pest or weed control at 125 g/ha / pest or weed control at 500 g/ha: read-out: efficacy; for pest or weed control at 125 g/ha: application rate 125 g/ha (=40 μg/cavity); for pest or weed control at 500 g/ha: application rate 500 g/ha (=160 μg/cavity); for pest or weed control at 20 g/ha: application rate 20 g/ha
Experimental: [table] To produce a suitable active compound formulation, 1 part by weight of active compound is dissolved using the stated parts by weight of solvent and made up with water containing an emulsifier concentration of 1000 ppm until the desired concentration is attained. To produce further test concentrations, the formulation is diluted with emulsifier-containing water. Pre-swollen wheat grains (Triticum aestivum) are incubated in a multiwell plate filled with agar and a little water for one day (5 seed grains per cavity). The germinated wheat grains are sprayed with an active compound formulation of the desired concentration. Subsequently, each cavity is infected with 10-20 beetle larvae of Diabrotica balteata. After 7 days, the efficacy in % is determined. 100% means that all wheat plants have grown as in the untreated, uninfected control; 0% means that no wheat plant has grown.

Nezara viridula = Nezara viridula spray test; assay type: in vivo; conditions: application rate 500 g/ha, after 4 days; for pest or weed control at 500 g/ha: Nezara viridula, 96 h
Experimental: [table] To produce a suitable active compound formulation, 1 part by weight of active compound is dissolved using the stated parts by weight of solvent and made up with water containing an emulsifier concentration of 1000 ppm until the desired concentration is attained. To produce further test concentrations, the formulation is diluted with emulsifier-containing water. Barley plants (Hordeum vulgare) are sprayed with an active compound formulation of the desired concentration and are infected with larvae of the Southern green shield bug (Nezara viridula). After 4 days, the efficacy in % is determined. 100% means that all of the shield bugs have been killed; 0% means that none of the shield bugs have been killed.

[2] = neutral range, ammonium acetate/acetonitrile, read-out: logP (neutral)

SMILES	pest or weed control at 100 g/ha (Spodoptera frugiperda) [%]	pest or weed control at 100 g/ha (Diabrotica balteata; application rate 100 g/ha) [%]	pest or weed control at 500 g/ha (Nezara viridula) [%]	pest or weed control at 20 g/ha (Diabrotica balteata) [%]	other results
O=S(=O)(c1ccc2oc(-c3nc(F)ccc3F)nc2c1)C(F)(F)F [2-(3,6-Difluoro-2-pyridyl)-5-(trifluoromethylsulfonyl)-1,3-benzoxazole]					chromatographic logP [1, 2]: 3.06
CCSc1ccc(F)nc1-c1nc2cc(S(=O)(=O)C(F)(F)F)ccc2o1 [2-(3-Ethylsulfanyl-6-fluoro-2-pyridyl)-5-(trifluoromethylsulfonyl)-1,3-benzoxazole]					chromatographic logP ([1]; acidic range, formic acid in water/acetonitrile, read-out: logP (acidic)): 4.13
CCS(=O)(=O)c1ccc(F)nc1-c1nc2cc(S(=O)(=O)C(F)(F)F)ccc2o1 [2-(3-Ethylsulfonyl-6-fluoro-2-pyridyl)-5-(trifluoromethylsulfonyl)-1,3-benzoxazole]					chromatographic logP [1, 2]: 3.11
CCS(=O)(=O)c1ccc(N2N=CC(c3ccccc3)C2=O)nc1-c1nc2cc(S(=O)(=O)C(F)(F)F)ccc2o1 (centres unmarked) [Example I-01]	100				activity (Phaedon cochleariae): 100%; pest or weed control at 4 ppm (Myzus persicae): 100%
CCS(=O)(=O)c1ccc(-n2ncn(-c3ccc(Br)cc3)c2=O)nc1-c1nc2cc(S(=O)(=O)C(F)(F)F)ccc2o1 [Example I-05]	100				pest or weed control at 4 ppm (Myzus persicae): 100%; pest or weed control at 31.25 g/ha (Diabrotica balteata): 100%; pest or weed control at 125 g/ha (Diabrotica balteata): 100%; pest or weed control at 500 g/ha (Diabrotica balteata): 100%
CCS(=O)(=O)c1ccc(-n2ncn(-c3ccc(C#N)cc3)c2=O)nc1-c1nc2cc(S(=O)(=O)C(F)(F)F)ccc2o1 [Example I-06]	100				pest or weed control at 4 ppm (Myzus persicae): 90%; pest or weed control at 31.25 g/ha (Diabrotica balteata): 100%; pest or weed control at 125 g/ha (Diabrotica balteata): 100%; pest or weed control at 500 g/ha (Diabrotica balteata): 100%
CCS(=O)(=O)c1ccc(-n2ncn(-c3cccc(F)c3)c2=O)nc1-c1nc2cc(S(=O)(=O)C(F)(F)F)ccc2o1 [Example I-14, 2-[5-Ethylsulfonyl-6-[5-(trifluoromethylsulfonyl)-1,3-benzoxazol-2-yl]-2-pyridyl]-4-(3-fluorophenyl)-1,2,4-triazol-3-one]	100	100			pest or weed control at 4 ppm (Myzus persicae): 90%; pest or weed control at 500 g/ha (Diabrotica balteata): 100%; chromatographic logP [1, 2]: 3.43
CCS(=O)(=O)c1ccc(-n2ncn(-c3cccc(I)c3)c2=O)nc1-c1nc2cc(S(=O)(=O)C(F)(F)F)ccc2o1 [Example I-16]	100	100			pest or weed control at 4 ppm (Myzus persicae): 90%; pest or weed control at 500 g/ha (Diabrotica balteata): 100%
CCS(=O)(=O)c1ccc(-n2ncn(C3CC3C(F)(F)F)c2=O)nc1-c1nc2cc(S(=O)(=O)C(F)(F)F)ccc2o1 (centres unmarked) [Example I-39]	100	100	100		
CCS(=O)(=O)c1ccc(-n2ncn(-c3cccc(Cl)c3)c2=O)nc1-c1nc2cc(S(=O)(=O)C(F)(F)C(F)(F)F)ccc2o1 [Example I-41]	100	100	100	100	
CCS(=O)(=O)c1ccc(-n2ncn(-c3cccc(Cl)c3)c2=O)nc1-c1nc2cc(S(=O)(=O)C(F)(F)C(F)(F)F)ccc2o1 [Example I-42]					activity (Nezara viridula): 90%; activity (Spodoptera frugiperda): 100%; activity (Diabrotica balteata; application rate 100 g/ha): 80%
CCS(=O)(=O)c1ccc(-n2ncn(-c3cccc(Br)c3)c2=O)nc1-c1nc2cc(C(F)(F)C(F)(F)F)ccc2o1 [Example I-44]	100	100	100	80	
CCS(=O)(=O)c1ccc(-n2ncn(-c3ccc(Cl)cc3)c2=O)nc1-c1nc2cc(C(F)(F)C(F)(F)F)ccc2o1 [Example I-45]	100	100	100	80	
CCS(=O)(=O)c1ccc(-n2ncn(-c3cccc(Cl)c3)c2=O)nc1-c1nc2cc(C(F)(F)C(F)(F)F)ccc2o1 [Example I-46]	100	80	90	100	
CCS(=O)(=O)c1ccc(-n2ncn(-c3cccc(F)c3)c2=O)nc1-c1nc2cc(C(F)(F)C(F)(F)F)ccc2o1 [Example I-47]	100	80	100	80	
CCS(=O)(=O)c1ccc(-n2ncn(-c3ccc(F)cc3)c2=O)nc1-c1nc2cc(S(=O)(=O)C(F)(F)C(F)(F)F)ccc2o1 [Example I-52]	100	100	100	100	
CCS(=O)(=O)c1ccc(-n2ncn(-c3ccc(F)cc3)c2=O)nc1-c1nc2cc(C(F)(F)C(F)(F)F)ccc2o1 [Example I-56]	100	100	100	100	
